2 compounds from PMC12298815 (Pharmaceutics, 2025) can be followed below.

The nature of data set [1]: In vivo pharmacokinetics in rats. The settings on record: rat; for AUC(0-inf): read-out: AUCinf of DT; for AUC(0-t): read-out: AUClast of DT; for half-life: read-out: T1/2 of DT (converted). As for the experimental part: Pharmacokinetic parameters were calculated using a non-compartmental analysis model with WinNonlin® software version 5.3 (Pharsight Corp., Mountain View, CA, USA). All quantitative data are presented as mean ± standard deviation (SD) or standard error of the mean (SEM), as indicated. Statistical analyses were performed using one-way analysis of variance (ANOVA) to assess differences among groups, followed by Tukey’s post hoc test for multiple comparisons. A p-value less than 0.05 (p < 0.05) was considered statistically significant.

The next data set relates to rat intestinal segments. As to the kind of experiment: In situ single-pass rat intestinal perfusion (Peff). It is filed as in vivo, Sprague–Dawley rats. The settings on record: low-permeability reference, 100 µg/mL in perfusion buffer. On the procedure:
The in situ single-pass intestinal effective permeability (Peff) of AT/DT dispersed in 0.5% DMSO and AT/DT-NE#E was evaluated in rats. Sprague–Dawley rats were selected due to their well-characterized gastrointestinal physiology, suitability for serial perfusion sampling, and widespread use in oral absorption and permeability studies. Prior to the procedure, the rats were fasted for 12–16 h with free access to water. Anesthesia was induced via intramuscular injection of a tiletamine·HCl–zolazepam mixture (1:1, w/w; 40 mg/kg). With the animals in a supine position, a midline longitudinal incision was made to expose the abdominal cavity. […]
After a 30 min equilibration period to establish steady-state conditions, outlet perfusates were collected at 15 min intervals over a period of 120 min. […] It was perfused under identical conditions, and fluorescence was measured at excitation/emission wavelengths of 494/512 nm using a multimode microplate reader (PerkinElmer).
Body temperature was maintained throughout the experiment using heated pads and a heat lamp. At the end of the study, the length and radius of each perfused intestinal segment were carefully measured without stretching. […]
The outlet concentrations of AT and DT were quantified via HPLC as described previously. […]

Each structure is given as a SMILES string. Where two headings read alike, the source gives them in different places.

In the case of `CC(=O)O[C@@]12CO[C@@H]1C[C@H](O)[C@@]1(C)C(=O)[C@H](O)C3=C(C)[C@@H](OC(=O)[C@H](O)[C@@H](NC(=O)OC(C)(C)C)c4ccccc4)C[C@@](O)([C@@H](OC(=O)c4ccccc4)[C@H]21)C3(C)C` [DT, Docetaxel], in data set [1] (plasma, IV, DT 5 mg/kg), the highest level (Cmax) was 479 ± 45.3 ng/mL, the AUC(0-inf) was found to be 4190 ± 264 ng·h/mL, the AUC(0-t) was determined as 1450 ± 109 ng·h/mL and the half-life is 8.33 ± 7.84 h. Further, in data set [1] (plasma, oral, DT 10 mg/kg), the time to peak (Tmax) (in general, the time from dosing to the highest level) stood at 8 h; the bioavailability (in general, dose-corrected exposure relative to a reference, in per cent) came to 7.22 ± 0.924%; the AUC(0-inf) is 264 ± 38.3 ng·h/mL; the AUC(0-t) was 210 ± 26.8 ng·h/mL. The half-life in data set [1] (plasma, oral, DT 10 mg/kg) was 8.67 ± 0.881 h. For the same compound, in data set [1] (oral, DT 10 mg/kg), the “Cmax of DT” value is 21.0 ± 5.17 ng/mL.

`O=C1OC2(c3ccc(O)cc3Oc3cc(O)ccc32)c2ccccc21` [fluorescein]: the Peff with rat intestinal segments is given as 0.001 ± 0.002 ×10^−4 cm/s.
